Earlier results, collected in US10912848B2, “Dual-purpose PAT/ultrasound contrast agent bound with nanoparticles containing drug and method for preparing same” (IMGT CO, LTD., priority 2014, dated 2021).
Where two headings read alike, the source gives them in different places.

Settings: 25° C.

## CC(=O)Oc1ccccc1C(=O)O [aspirin]
H2O
  volume of solvent required to dissolve 1 g of drug: 300 mL
ethanol
  volume of solvent required to dissolve 1 g of drug: 5 mL
